The target in one data set is T1, Taq polymerase (Thermus aquaticus, UniProt P19821).
T1 construct: purchased ABI (Applied Biosystems)
Kind of data set: Taq polymerase inhibition by Taqman real time PCR (gene amplification, CT values). As to conditions: for Taq polymerase activity / 18S amplification: spiked into heparin and treated with heparinase; for gene amplification (polymerase activity) after treatment with heparinase: heparinase 2 hours at room temperature, OS-CS 30 ng, heparin 25 mU of lot C1 (FIG. 2B); for 18S amplification: same conditions. In kind it is biochemical. The protocol:
Heparinase treatment: Heparin was treated with heparinase I (1:1 unit:unit reaction unless otherwise noted) for 2 hours at 25° C. in a buffer containing 4 mM Tris-HCl pH 7.5, 0.8 mM CaCl, 10 mM NaCl, and 20 U of RNase inhibitor (ABI). After treatment, the heparin was diluted to a final volume of 50 μl and serial dilutions were prepared in DEPC water as specified. Where indicated, other GAGs and oversulfated GAGs (dermatan sulfate, chondroitin sulfate, and heparan sulfate) were treated with heparinase under the same conditions as described above.
Screening Assay: cDNA was generated using total RNA from MDA-MB-231 human breast cancer cell line extracted using Trizol reagent (Invitrogen, Carlsbad, Calif.) as per manufacturer's instructions. For each cDNA reaction 1 μg total RNA was reverse transcribed using High Capacity cDNA Reverse Transcription Kit (Applied Biosystems, Foster City Calif.) in a volume of 20 μl and further diluted in DEPC water to 100 μl final volume. The concentration of cDNA was determined using Quant-iT OliGreen ssDNA Reagent (Invitrogen). For each Taqman® reaction, 25 ng of cDNA in a 2.5 μl volume were mixed with 2.5 μl of each dilution of heparinase-treated heparin or hypersulfated GAGs and then subjected to real time PCR using Taqman® Gene Expression assay for human 18S rRNA (20×) and 2× Universal PCR master mix (ABI) in a 25 μl reaction. Amplification levels of 18S are expressed as CT values. CT values represent the cycle at which amplification of a target gene is first detected. The amplification was analyzed using manual settings with a threshold value of 0.1 and the SDS2.3 software from ABI. […] Quantification of the oversulfated GAGs was performed by establishing a cutoff at the minimum concentration of synthetic OS-CS that completely blocks Taq polymerase (500 pg) and tittering all the samples until the activity of Taq polymerase was restored.
Real time-PCR (Taqman® PCR) is a highly sensitive method for detecting changes in gene expression. Gene amplification depends on a thermostable DNA polymerase from Thermus aquaticus (Taq pol). […] Shown in FIG. 1 are the levels of 18S amplification from 25 ng cDNA derived from MDA-MB-231 cells as determined by Taqman® PCR. While the 18S rRNA is used here, any RNA or DNA template is suitable. Addition of progressively higher amounts of heparin induces a corresponding reduction in Taq polymerase activity that can be monitored by assessing 18S cDNA amplification. […] Treatment of heparin with 1 unit of heparinase for 2 hrs at 25° C. overcomes the blocking activity of up to 50 mU of heparin (FIG. 1A).
To compare the use of different template sequences to measure the inhibition of Taq polymerase activity by oversulfated GAGs, heparin preparations were processed and RNA was isolated as detailed in Example 1, except that cDNAs were generated and amplified from the Actin B and GAPDH RNA sequences, in addition to the 18S rRNA.
Table 1 compares the effects of different oversulfated GAGs on the amplification of 18S, Actin B, and GAPDH sequences by Taq polymerase, as shown by mean cycle thresholds (CT) of amplification detection. The CT value indicating no inhibition of Taq polymerase activity varied slightly by template, but was maximally <20. […] Addition of progressively higher amounts of over sulfated chondroitin sulfate (OS-CS), oversulfated dermatan sulfate (OS-DS), and oversulfated heparan sulfate (OS-HS) to cDNA induced a corresponding reduction in Taq polymerase amplification of 18S, Actin B, and GAPDH.
For orientation: Real-time PCR tracks product formation cycle by cycle.

In another data set the test system is porcine model. As to conditions: 5 mg/kg i.v. in bolus; cited from earlier work.
Where [1] appears, read: any concentration tested (0-125 ng).

The values below come from patent US20110165578A1, “METHODS FOR DETECTING AND QUANTIFYING OVERSULFATED GLYCOSAMINOGLYCANS” (priority 2008, published 2011).

T1 sequence (P19821 whole entry): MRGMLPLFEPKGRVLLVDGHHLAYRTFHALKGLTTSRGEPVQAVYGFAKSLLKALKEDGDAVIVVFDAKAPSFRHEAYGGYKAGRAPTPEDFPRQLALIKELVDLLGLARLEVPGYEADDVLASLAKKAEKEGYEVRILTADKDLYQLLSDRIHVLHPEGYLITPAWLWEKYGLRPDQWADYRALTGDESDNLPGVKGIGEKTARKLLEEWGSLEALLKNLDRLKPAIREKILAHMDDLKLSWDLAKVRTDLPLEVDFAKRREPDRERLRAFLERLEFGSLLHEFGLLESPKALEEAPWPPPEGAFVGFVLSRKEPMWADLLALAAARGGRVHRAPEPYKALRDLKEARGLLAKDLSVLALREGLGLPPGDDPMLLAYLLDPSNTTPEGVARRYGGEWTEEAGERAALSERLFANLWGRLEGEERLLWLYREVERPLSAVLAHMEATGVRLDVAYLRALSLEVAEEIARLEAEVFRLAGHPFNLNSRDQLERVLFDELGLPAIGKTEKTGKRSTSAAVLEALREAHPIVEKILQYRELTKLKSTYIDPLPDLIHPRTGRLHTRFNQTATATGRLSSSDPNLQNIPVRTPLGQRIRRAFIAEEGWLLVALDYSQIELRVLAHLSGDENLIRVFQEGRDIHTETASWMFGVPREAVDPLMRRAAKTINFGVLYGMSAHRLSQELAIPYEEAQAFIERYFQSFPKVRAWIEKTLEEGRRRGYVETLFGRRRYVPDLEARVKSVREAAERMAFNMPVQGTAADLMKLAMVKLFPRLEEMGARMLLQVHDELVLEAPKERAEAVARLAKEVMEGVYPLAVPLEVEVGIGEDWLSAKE

Consider Heparan sulfate [HS], for which the “mean cycle threshold (CT) of amplification detection” value (from here on “mean cycle threshold (CT)”) is listed as 13.62 at Taq polymerase (18S template, 8.3 ng); 13.66 at Taq polymerase (18S template, 25 ng); 13.69 at Taq polymerase (18S template, 62.5 ng); 13.96 at Taq polymerase (18S template, 125 ng); 14.36 on Taq polymerase (18S template, 250 ng); 18.36 on Taq polymerase (Actin B template, 25 ng). The “mean cycle threshold (CT)” value worked out at 17.68 at Taq polymerase (GAPDH template, 8.3 ng) and 18.37 on Taq polymerase (GAPDH template, 25 ng). The “Taq polymerase amplification of any of the tested templates (18S, Actin B, GAPDH)” value at Taq polymerase (at comparable concentrations) is recorded as “did not inhibit”. Also, the Taq polymerase activity result at Taq polymerase (setting [1]) is “did not inhibit”.

For the substance “oversulfated chondroitin sulfate [OS-CS]”, the “reproduction of the clinical syndrome (adverse events)” value in the data set with porcine model is on record as “partially reproduce the clinical syndrome”. For the same substance, the “amount that completely blocked Taq polymerase mediated 18S cDNA amplification” value on Taq polymerase (18S template, 25 ng cDNA (FIG. 1C)) was 500 pg. Further, the “mean cycle threshold (CT)” value is reported as 13.81 on Taq polymerase (18S template, 0.08 ng added to cDNA); 14.38 on Taq polymerase (18S template, 0.25 ng); 18.89 on Taq polymerase (18S template, 0.5 ng); 31.20 on Taq polymerase (18S template, 0.75 ng); 40.00 on Taq polymerase (18S template, 1 ng); 40.00 at Taq polymerase (18S template, 1.25 ng). Further, the “mean cycle threshold (CT)” value on Taq polymerase (Actin B template, 0.08 ng) came to 18.48; at Taq polymerase (Actin B template, 0.25 ng) it was 26.89; at Taq polymerase (Actin B template, 0.5 ng), 38.84; at Taq polymerase (Actin B template, 0.75 ng) it was 40.00; on Taq polymerase (Actin B template, 1 ng), 40.00; on Taq polymerase (Actin B template, 1.25 ng), 40.00. Moreover, the “mean cycle threshold (CT)” value at Taq polymerase (GAPDH template, 0.08 ng) stood at 17.22; on Taq polymerase (GAPDH template, 0.25 ng), 25.13; on Taq polymerase (GAPDH template, 0.5 ng) it was 40.00; at Taq polymerase (GAPDH template, 0.75 ng) it was 40.00; on Taq polymerase (GAPDH template, 1 ng), 40.00; at Taq polymerase (GAPDH template, 1.25 ng), 40.00. In addition, the “limit of detection in heparin” value at Taq polymerase (calculated from 500 pg block and heparin potency 6.25 μg/U) is listed as 0.16 % (w/w). Moreover, the “gene amplification (polymerase activity) after treatment with heparinase” value on Taq polymerase was “not”. Besides, the 18S amplification entry on Taq polymerase was “significantly reduced”.

In the case of Chondroitin sulfate type A [CS-A], at Taq polymerase (setting [1]), the Taq polymerase activity result is given as “did not inhibit”.

oversulfated heparan sulfate [OS-HS]: the “mean cycle threshold (CT)” value on Taq polymerase (18S template, 0.3 ng) worked out at 14.49; at Taq polymerase (18S template, 0.9 ng), 26.00; at Taq polymerase (18S template, 2.7 ng), 40.00; at Taq polymerase (18S template, 8.3 ng) it was 40.00; on Taq polymerase (18S template, 25 ng) it was 40.00; on Taq polymerase (Actin B template, 0.3 ng), 27.12. In addition, the “mean cycle threshold (CT)” value at Taq polymerase (Actin B template, 0.9 ng) turned out to be 40.00; on Taq polymerase (Actin B template, 2.7 ng) it was 40.00; on Taq polymerase (Actin B template, 8.3 ng) it was 40.00; at Taq polymerase (GAPDH template, 0.3 ng), 25.98; on Taq polymerase (GAPDH template, 0.9 ng), 40.00; at Taq polymerase (GAPDH template, 2.7 ng), 40.00. In addition, the “mean cycle threshold (CT)” value was 40.00 on Taq polymerase (GAPDH template, 8.3 ng) and 40.00 at Taq polymerase (GAPDH template, 25 ng). For the same substance, the 18S amplification entry at Taq polymerase is “significantly reduced”.

Take Chondroitin sulfate E [CS-E]: at Taq polymerase (highest concentration tested (125 ng)), the Taq polymerase activity entry is listed as “trace of inhibitory effect”.

On to dermatan sulfate [DS], for which, on Taq polymerase (setting [1]), the Taq polymerase activity result is “did not inhibit”.

As for oversulfated dermatan sulfate [OS-DS], the “mean cycle threshold (CT)” value worked out at 14.13 on Taq polymerase (18S template, 0.3 ng); 18.29 at Taq polymerase (18S template, 0.9 ng); 40.00 at Taq polymerase (18S template, 2.7 ng); 40.00 on Taq polymerase (18S template, 8.3 ng); 40.00 at Taq polymerase (18S template, 25 ng); 25.45 at Taq polymerase (Actin B template, 0.3 ng). For the same substance, the “mean cycle threshold (CT)” value on Taq polymerase (Actin B template, 0.9 ng) amounted to 31.85; on Taq polymerase (Actin B template, 2.7 ng) it was 40.00; on Taq polymerase (Actin B template, 8.3 ng), 40.00; on Taq polymerase (Actin B template, 25 ng), 40.00; on Taq polymerase (GAPDH template, 0.3 ng), 24.76; at Taq polymerase (GAPDH template, 0.9 ng), 39.12. Also, the “mean cycle threshold (CT)” value was found to be 40.00 on Taq polymerase (GAPDH template, 2.7 ng); 40.00 on Taq polymerase (GAPDH template, 8.3 ng); 40.00 on Taq polymerase (GAPDH template, 25 ng). Also, the 18S amplification entry on Taq polymerase is reported as “significantly reduced”.

heparin: the “amount of heparin whose blocking activity is overcome by heparinase treatment” value at Taq polymerase (1 unit of heparinase, 2 hrs at 25° C., 18S (FIG. 1A)) was “up to 50 mU”. Besides, the “gene amplification (polymerase activity) after treatment with heparinase” value at Taq polymerase is listed as “restores gene amplification”.
